In US8791113B2, “2,4-diaryl-substituted [1,8] naphthyridines as kinase inhibitors for use against cancer” (Merck Patent GmbH, priority 2010, dated 2014):

Assays:
[1] = biological target: T1, GST-ALK5 (TGF-beta receptor kinase) (Homo sapiens, UniProt P36897); experiment: In-vitro (enzyme) kinase flashplate assay: GST-ALK5 phosphorylation of GST-SMAD2 with 33P-ATP; format: biochemical; conditions: 384-well flashplate kinase assay, GST-ALK5 / GST-SMAD2, 33P-ATP, 30° C., 45 min; read-out: TβR activity (Example 50)
T1 sequence (P36897 34-503): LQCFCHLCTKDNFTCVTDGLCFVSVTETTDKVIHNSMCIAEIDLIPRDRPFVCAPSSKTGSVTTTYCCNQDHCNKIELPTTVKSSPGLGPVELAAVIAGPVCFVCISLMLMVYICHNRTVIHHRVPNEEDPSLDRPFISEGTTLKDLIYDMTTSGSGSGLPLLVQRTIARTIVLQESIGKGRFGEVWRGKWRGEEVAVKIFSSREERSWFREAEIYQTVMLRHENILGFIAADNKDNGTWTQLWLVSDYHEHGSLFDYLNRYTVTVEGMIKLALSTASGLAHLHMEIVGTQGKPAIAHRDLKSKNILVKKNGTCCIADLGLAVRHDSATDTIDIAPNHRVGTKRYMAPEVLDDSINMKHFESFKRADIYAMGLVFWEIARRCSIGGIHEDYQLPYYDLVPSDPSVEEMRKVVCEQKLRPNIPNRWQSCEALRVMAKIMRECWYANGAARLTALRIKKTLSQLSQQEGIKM
Description: In-vitro (Enzyme) Assay for Determination of the Efficacy of Inhibitors of the Inhibition of TGF-Beta-Mediated Effects
The kinase assay was carried out as 384-well flashplate assay. 31.2 nM of GST-ALK5, 439 nM of GST-SMAD2 and 3 mM of ATP (with 0.3 μCi of ^33P-ATP/well) were incubated in a total volume of 35 μl (20 mM of HEPES, 10 mM of MgCl2, 5 mM of MnCl2, 1 mM of DTT, 0.1% of BSA, pH 7.4) without or with test substance (5-10 concentrations) at 30° C. for 45 min. The reaction was stopped using 25 μl of 200 mM EDTA solution, filtered with suction at room temperature after 30 min, and the wells were washed with 3 times 100 μl of 0.9% NaCl solution. Radioactivity was measured in the TopCount. The IC50 values were calculated using RS1.

[2] = tested on: TGF-beta-induced phosphorylation of Smad2 (Ser465/467) and Smad3 (Ser423/425) in Mv1-Lu cells; experiment: Inhibition of Smad2/3 phosphorylation in Mv1Lu cells (PathScan Phospho-Smad2 ELISA); format: cell-based, mink Mustela vison; conditions: Neogale vison, Mv1-Lu cells, TGF-beta 1 5 ng/ml, Phospho-Smad2/3 ELISA, read-out: TβR activity (Example 51)
Description: Inhibition of Smad2/3 Phosphorylation in Mv1 Lu Cells by TGF-Beta Receptor I Kinase Inhibitors
This assay was used to determine the inhibitory potency of compounds on TGF-beta-induced phosphorylation of Smad2 (Ser465/467) and Smad3 (Ser423/425). Mv1-Lu cells (lung epithelial cell line from mink Mustela vison; ATCC number: CCL-64) were seeded in DMEM (Invitrogen) supplemented with 10% fetal bovine serum (Pan Biotech) at a defined cell density in 24-well or 96-well plates (24-well plate: 1.5×10^5 cells per well; 96-well plate: 4×10^4 cells per well). Cell cultures were incubated in DMEM at 37° C. and 10% CO2. On the next day, the medium was replaced and cells were serum-starved for 16-20 hours. The following day, serial dilutions of compounds were added to the wells, pre-incubated for 1.5 hrs before recombinant TGF-beta 1 ligand (final concentration 5 ng/ml; R&D systems) was added. After one hour of ligand stimulation, lysates were prepared and analyzed using an enzyme-linked immunosorbent assay kit (PathScan Phospho-Smad2 Kit, Cell Signaling Technologies). The ELISA detects phosphorylated Smad2 as well as phosphorylated Smad3 with the phospho-specific antibody. TGF-beta stimulated cells and unstimulated cells served as positive and negative controls (100% and background control). The concentration of the vehicle DMSO was kept constant at 0.2% (v/v) in all wells. Dose-response relationships were fitted using curve fitting algorithms of the RS1 statistics software package (Brooks Automation Inc. RS/1- Statistical Tools Handbook. Release 6.2) to determine the concentration at which half-maximal inhibition (IC50) of Smad2/3 phosphorylation was achieved.

IC50 [1] | IC50 [2] | SMILES
< 1 µM | < 1 µM | O=c1c2cnccc2c(-c2cc(-c3cc(Cl)ccc3F)nc3ncccc23)cn1CCN1CCCC1 [Compound 91, 4-[2-(5-Chloro-2-fluoro-phenyl)-[1,8]naphthyridin-4-yl]-2-(2-pyrrolidin-1-yl-ethyl)-2H-[2,7]naphthyridin-1-one]
< 1 µM | < 1 µM | Fc1ccc(Cl)cc1-c1cc(-c2nccc3cnccc23)c2cccnc2n1 [Compound 35, 2-(5-Chloro-2-fluoro-phenyl)-4-[2,6]naphthyridin-1-yl-[1,8]naphthyridine]
< 1 µM | < 1 µM | Fc1ccc(Cl)cc1-c1cc(-c2cccc3cnccc23)c2cccnc2n1 [Compound 2, 2-(5-Chloro-2-fluoro-phenyl)-4-isoquinolin-5-yl-[1,8]naphthyridine]
< 1 µM | < 1 µM | Nc1ccc2c(-c3cccc4c(N)nccc34)cc(-c3ccccc3F)nc2n1 [Compound 117, 5-(1-Amino-isoquinolin-5-yl)-7-(2-fluoro-phenyl)-[1,8]naphthyridin-2-ylamine]
< 1 µM | < 1 µM | O=c1[nH]cc(-c2cc(-c3cc(Cl)ccc3F)nc3ncccc23)c2ccncc12 [Compound 89, 4-[2-(5-Chloro-2-fluoro-phenyl)-[1,8]naphthyridin-4-yl]-2H-[2,7]naphthyridin-1-one]
1 to 10 µM | 1 to 10 µM | CN(C)CC(=O)Nc1nccc2c(-c3cc(-c4ccccc4F)nc4ncccc34)nccc12 [Compound 71, 2-Dimethylamino-N-{5-[2-(2-fluoro-phenyl)-[1,8]naphthyridin-4-yl]-[2,6]naphthyridin-1-yl}-acetamide]
< 1 µM | < 1 µM | Nc1nccc2c(-c3cc(-c4cc(F)ccc4F)nc4ncccc34)cccc12 [Compound 10, 5-[2-(2,5-Difluoro-phenyl)-[1,8]naphthyridin-4-yl]-isoquinolin-1-ylamine]
< 1 µM | < 1 µM | Nc1nccc2c(-c3cc(-c4ccccc4)nc4ncccc34)nccc12 [Compound 87, 5-(2-Phenyl-[1,8]naphthyridin-4-yl)-[2,6]naphthyridin-1-ylamine]
< 1 µM | < 1 µM | Fc1ccc(Cl)cc1-c1cc(-c2cnc(OCCN3CCCC3)c3cnccc23)c2cccnc2n1 [Compound 100, 2-(5-Chloro-2-fluoro-phenyl)-4-[1-(2-pyrrolidin-1-yl-ethoxy)-[2,7]naphthyridin-4-yl]-[1,8]naphthyridine]
1 to 10 µM | > 10 µM | O=c1cc(-c2cc(-c3cc(Cl)ccc3F)nc3ncccc23)c2ccncc2n1CCN1CCOCC1 [Compound 110, 4-[2-(5-Chloro-2-fluoro-phenyl)-[1,8]naphthyridin-4-yl]-1-(2-morpholin-4-yl-ethyl)-1H-[1,7]naphthyridin-2-one]
< 1 µM | 1 to 10 µM | Cc1cccc(-c2cc(-c3nccc4cnccc34)c3cccnc3n2)n1 [Compound 7, 2-(6-Methyl-pyridin-2-yl)-4-[2,6]naphthyridin-1-yl-[1,8]naphthyridine]
< 1 µM | 1 to 10 µM | Nc1nccc2c(-c3cc(-c4ccccc4Cl)nc4ncccc34)nccc12 [Compound 90, 5-[2-(2-Chloro-phenyl)-[1,8]naphthyridin-4-yl]-[2,6]naphthyridin-1-ylamine]
< 1 µM | > 10 µM | Fc1ccccc1-c1cc(-c2ccnc3cnccc23)c2cccnc2n1 [Compound 111, 4-[2-(2-Fluoro-phenyl)-[1,8]naphthyridin-4-yl]-[1,7]naphthyridine]
< 1 µM | < 1 µM | Fc1ccc(Cl)cc1-c1cc(-c2c[nH]c3cnccc23)c2cccnc2n1 [Compound 1, 2-(5-Chloro-2-fluoro-phenyl)-4-(1H-pyrrolo[2,3-c]pyridin-3-yl)-[1,8]naphthyridine]
< 1 µM | < 1 µM | Nc1nccc2c(-c3cc(-c4cc(Cl)ccc4F)nc4ncccc34)coc12 [Compound 13, 3-[2-(5-Chloro-2-fluoro-phenyl)-[1,8]naphthyridin-4-yl]-furo[2,3-c]pyridin-7-ylamine]
